# Data taken from patent US20220162206A1, “NOVEL AZAINDOLE DERIVATIVE” (KOWA COMPANY, LTD., priority 2019, published 2022).
# Assays:
# [1] = system: human non-small cell lung cancer cell line NCI-H460; test: Antitumor effect in human non-small cell lung cancer cell line NCI-H460 subcutaneously transplanted nude mouse model; assay type: in vivo, BALB/c-nu/nu mouse; settings: 300 mg/kg by gavage
# Experimental: The antitumor effect of the inventive compound was examined using a human non-small cell lung cancer cell line NCI-H460 subcutaneously transplanted nude mouse model.
# A cell culture medium was prepared by adding 5.6 mL of Penicillin-Streptomycin (Sigma-Aldrich Co. LLC), 56 mL of FBS (MP Biomedicals), 5.6 mL of 1 mol/L HEPES (Sigma-Aldrich Co. LLC), 5.6 mL of 100 mmol/L Sodium Pyruvate (Life Technologies), and 1.4 g of D-(+)-Glucose (Wako Pure Chemical Industries, Ltd.) to a RPMI1640 culture medium (Sigma-Aldrich Co. LLC). NCI-H460 cells (American Type Culture Collection) were cultured using the prepared culture medium at 37° C. in a 5% CO2 incubator.
# The cultured NCI-H460 cells were suspended in PBS. […]
# From the day of grouping, the administration solutions were administered by gavage to mice transplanted with cancer cells (15 mice in each group) for the total of 22 days, once a day on the day of the grouping and the last day and twice a day on other days. […] The administration volume was calculated from the last body weight of each.
# The tumor volume of each mouse was calculated by the following equation, and the antitumor effect was evaluated using the tumor volume as the index. […]
# CSF-1R (Fms, active) = biological target: T1, CSF-1R (Fms, active) (Homo sapiens, UniProt P07333); test: Evaluation of CSF-1R inhibitory activity by TR-FRET method (HTRF KinEASE-TK kit); assay type: biochemical; settings: for IC50: TR-FRET method, phosphorylation of substrate peptide, enzyme 0.05 μg/mL; for inhibitory activities against CSF-1R (in words): statement referring to the Test Examples
# T1 construct: purchased Eurofins DiscoverX Products, LLC 14-551
# Experimental: The CSF-1R inhibitory activity of an inventive compound was evaluated by a TR-FRET method using phosphorylation of a substrate peptide of CSF-1R as the index.
# The inventive compound was dissolved in dimethyl sulfoxide sterilized by filtration to prepare a 10 μmol/L solution. This solution was dispensed using an acoustic noncontact type nanoliter dispenser (Echo 550, LABCYTE Inc.) such that the final concentrations were within a range from 0.25 to 180 nmol/L.
# The assay was performed using an HTRF™ KinEASE™-TK kit (Cisbio Bioassays, 62TK0PEC) by the procedure in accordance with the manual (62TK0PEC rev04(2009)). In the assay, a 384-well plate (Greiner 784076 Black 384 well, Small volume, Greiner Bio-One International GmbH) was used. The enzyme was Fms, active (14-551, Eurofins DiscoverX Products, LLC), which was prepared such that the final concentration was 0.05 μg/mL. TR-FRET measurement (fluorescence of 620 nm and 665 nm) was performed using an HTRF-dedicated microplate reader (K-101, Kyoritsu Radio Service Co., Ltd.). The proportion of the fluorescence quantity at each wavelength as the index of phosphorylation [((quantity of 665 nm fluorescence)/(quantity of 620 nm fluorescence))×10,000] was calculated, and the IC50 value was determined by statistical treatment of the proportion of the fluorescence quantity at each compound concentration.
# T1 sequence (P07333 20-972): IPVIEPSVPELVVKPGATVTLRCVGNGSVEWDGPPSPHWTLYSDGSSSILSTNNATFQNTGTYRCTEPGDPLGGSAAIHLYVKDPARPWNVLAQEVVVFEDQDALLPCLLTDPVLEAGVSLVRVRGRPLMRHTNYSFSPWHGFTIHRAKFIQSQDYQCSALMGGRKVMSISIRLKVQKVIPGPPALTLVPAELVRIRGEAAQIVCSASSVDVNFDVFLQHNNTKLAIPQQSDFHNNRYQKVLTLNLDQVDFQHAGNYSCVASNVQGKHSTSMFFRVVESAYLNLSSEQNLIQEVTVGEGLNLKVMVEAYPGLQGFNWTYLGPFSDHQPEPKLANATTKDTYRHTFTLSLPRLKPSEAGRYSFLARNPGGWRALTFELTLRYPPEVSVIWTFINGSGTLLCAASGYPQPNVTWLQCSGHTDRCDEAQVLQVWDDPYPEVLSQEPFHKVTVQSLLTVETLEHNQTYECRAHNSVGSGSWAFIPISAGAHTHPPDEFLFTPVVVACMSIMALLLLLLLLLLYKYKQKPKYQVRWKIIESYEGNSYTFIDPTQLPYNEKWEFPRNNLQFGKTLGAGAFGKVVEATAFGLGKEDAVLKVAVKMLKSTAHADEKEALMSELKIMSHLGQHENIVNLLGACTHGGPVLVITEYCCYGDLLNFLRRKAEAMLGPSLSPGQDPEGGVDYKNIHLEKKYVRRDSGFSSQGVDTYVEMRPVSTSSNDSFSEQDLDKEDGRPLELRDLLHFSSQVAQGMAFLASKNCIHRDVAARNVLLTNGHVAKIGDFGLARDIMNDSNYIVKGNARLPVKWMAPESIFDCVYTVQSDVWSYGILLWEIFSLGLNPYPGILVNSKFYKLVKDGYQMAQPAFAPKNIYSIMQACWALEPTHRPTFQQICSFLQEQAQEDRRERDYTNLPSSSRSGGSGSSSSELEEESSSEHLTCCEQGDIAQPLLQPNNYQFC
SMILES,"Tumor growth inhibition rate (TGI %) ([1]; 22 days, last administration day, NCI-H460 nude mouse) [%]","tumor growth inhibition (in words, FIG. 1) ([1]; tumor volume vs Control group, Student's t test)","IC50 (CSF-1R (Fms, active)) [nM]","inhibitory activities against CSF-1R (in words) (CSF-1R (Fms, active))"
"COc1ccc(-c2[nH]c3ncc(C#CCCO)cc3c2CN2CCOCC2)cc1 [Example 1, 4-(2-(4-methoxyphenyl)-3-(morpholinomethyl)-1H-pyrrolo[2,3-b]pyridin-5-yl)but-3-yn-1-ol]",61,significant tumor growth inhibition,30 to 100,potent inhibitory activities
"COc1ccc(-c2[nH]c3ncc(C#CCCO)cc3c2CN2C3CCC2COC3)cc1 [Example 2, 4-(3-((3-oxa-8-azabicyclo[3.2.1]octan-8-yl)methyl)-2-(4-methoxyphenyl)-1H-pyrrolo[2,3-b]pyridin-5-yl)but-3-yn-1-ol]",,,10 to 30,potent inhibitory activities
"COc1ccc(-c2[nH]c3ncc(C#CCCO)cc3c2CN2CCOCC2)cc1OC [Example 3, 4-(2-(3,4-dimethoxyphenyl)-3-(morpholinomethyl)-1H-pyrrolo[2,3-b]pyridin-5-yl)but-3-yn-1-ol]",,,10 to 30,potent inhibitory activities
"OCCC#Cc1cnc2[nH]c(-c3ccc(N4CCOCC4)cc3)c(CN3CCOCC3)c2c1 [Example 4, 4-(3-(morpholinomethyl)-2-(4-morpholinophenyl)-1H-pyrrolo[2,3-b]pyridin-5-yl)but-3-yn-1-ol]",,,< 10,potent inhibitory activities
"OCCC#Cc1cnc2[nH]c(-c3ccc(N4CCC(O)CC4)cc3)c(CN3CCOCC3)c2c1 [Example 5, 1-(4-(5-(4-hydroxybut-1-yn-1-yl)-3-(morpholinomethyl)-1H-pyrrolo[2,3-b]pyridin-2-yl)phenyl)piperidin-4-ol]",,,< 10,potent inhibitory activities
"COc1cc(-c2[nH]c3ncc(C#CCCO)cc3c2CN2C3CCC2COC3)ccc1OC1COC1 [Example 6, 4-(3-((3-oxa-8-azabicyclo[3.2.1]octan-8-yl)methyl)-2-(3-methoxy-4-(oxetan-3-yloxy)phenyl)-1H-pyrrolo[2,3-b]pyridin-5-yl)but-3-yn-1-ol]",,,10 to 30,potent inhibitory activities
"CC(=O)N1CC=C(c2[nH]c3ncc(C#CCCO)cc3c2CC(C)C)CC1 [Example 7, 1-(4-(5-(4-hydroxybut-1-yn-1-yl)-3-isobutyl-1H-pyrrolo[2,3-b]pyridin-2-yl)-3,6-dihydropyridin-1(2H)-yl)ethan-1-one]",,,< 10,potent inhibitory activities
"CC(=O)N1CC=C(c2[nH]c3ncc(C#CCCO)cc3c2CC2CCOCC2)CC1 [Example 8, 1-(4-(5-(4-hydroxybut-1-yn-1-yl)-3-((tetrahydro-2H-pyran-4-yl)methyl)-1H-pyrrolo[2,3-b]pyridin-2-yl)-3,6-dihydropyridin-1(2H)-yl)ethan-1-one]",,,< 10,potent inhibitory activities
"COc1ccc(-c2[nH]c3ncc(C#CCCO)cc3c2CC2CCOCC2)cn1 [Example 9, 4-(2-(6-methoxypyridin-3-yl)-3-((tetrahydro-2H-pyran-4-yl)methyl)-1H-pyrrolo[2,3-b]pyridin-5-yl)but-3-yn-1-ol]",,,< 10,potent inhibitory activities
